Data from patent US9908884B2, “EGFR inhibitors and methods of treating disorders” (priority 2009, dated 2018).

Key:
[1] = Phase I trial; cited from earlier work
[2] = system: H1975 (L858R/T790M) cells; assay: EGFR signaling immunoblot in H1975 cells; assay type: cell-based; conditions: 16 hours
Procedure: All cell lines were maintained in RPMI 1640 (Cellgro; Mediatech Inc., Herndon, Calif.) supplemented with 10% FBS 100 units/mL penicillin, 100 […], and 2 mM glutamine.
The supernatant was used for subsequent procedures. […] Antibody binding was detected using an enhanced chemiluminescence system (New England Nuclear Life Science Products Inc.).

T790M EGFR = T790M EGFR (Homo sapiens, UniProt P00533, T790M); assay: Mass spectrometric analysis of T790M EGFR modification; conditions: MS/MS of peptic peptide 791-798
Source text: (A) Intact ESI mass spectra of the free and inhibitor bound. The raw m/z data are shown on the left and the transformed, mass only spectra shown on the right. The measured and theoretical molecular weights of the unmodified as well as modified version of each protein are indicated. In the transformed mass spectra, peaks corresponding to a phosphorylation are indicated. […] All the ions in these mass spectra have been converted to a single charge state.
For intact protein mass spectral analysis, the proteins T790M alone and with small molecules bound were injected onto a POROS 20 R2 protein trap and desalted with 0.05% trifluoroacetic acid (TFA) at a flow rate of 100 μL/min. The proteins were eluted into the mass spectrometer using a linear 15%-75% (v/v) acetonitrile gradient over 4 min at 50 μL/min using a Shimadzu HPLC system (LC-10ADvp). Intact protein analyses were performed on an LCT-Premier instrument (Waters Corp., Milford, Mass., USA) equipped with a standard electrospray source. The capillary voltage was 3.2 kV and the cone voltage of 35 V. Nitrogen was used as desolvation gas. A source temperature of 175° C. and a desolvation temperature of 80° C. were applied. The instrument was calibrated by infusing a solution of 500 fmol/μL myoglobin and the mass accuracy was less than 10 ppm. […]

lung cancer patients = conditions: all lung cancer patients, not selected for EGFR mutation; cited from earlier work

**Q.** With `CCOc1cc2ncc(C#N)c(Nc3ccc(OCc4ccccn4)c(Cl)c3)c2cc1NC(=O)/C=C/CN(C)C` [HKI-272] as the compound, how does the Cmax [1] read?
**A.** ~200 nM

**Q.** With `C=CC(=O)Nc1cccc(Oc2nc(Nc3ccc(N4CCN(C)CC4)cc3)ncc2Cl)c1` [WZ3146, N-(3-(5-chloro-2-(4-(4-methylpiperazin-1-yl)phenylamino)pyrimidin-4-yloxy)phenyl)acrylamide] as the compound, how does the “inhibition of EGFR, Akt and ERK 1/2 phosphorylation” value [2] read?
**A.** significantly lower concentrations compared with CL-387,785

**Q.** And the “site of covalent attachment” value (T790M EGFR)?
**A.** Cys797 was the site of covalent attachment

**Q.** With `C#Cc1cccc(Nc2ncnc3cc(OCCOC)c(OCCOC)cc23)c1` [erlotinib] as the compound, how does the “median time to tumor progression” value (lung cancer patients) read?
**A.** approximately 2 months

**Q.** Which “median time to tumor progression” value (lung cancer patients) does the source give for `COc1cc2ncnc(Nc3ccc(F)c(Cl)c3)c2cc1OCCCN1CCOCC1` [gefitinib] here?
**A.** approximately 2 months
